Measured values from patent US8772495B2, “5-lipoxygenase-activating protein inhibitor” (Panmira Pharmaceuticals, LLC, priority 2008, dated 2014).
“And” between values parts separate entries of the source, which are not always exact repeats. Equal values may be shown once. Read-outs that look alike come from different tables or passages of the source. Marks after values point to notes of the source that are not given here.

Key:
[1] = Thermodynamic aqueous solubility by HPLC; format: physicochemical; conditions: water
Procedure: The suspension was equilibrated at 25° C. for 24 hours then the pH was measured. The suspension was then filtered through a glass fibre C filter into a 96 well plate. […] Quantitation was by HPLC with reference to a standard solution of approximately 0.1 mg.ml^−1 in DMSO. Different volumes of the standard, diluted and undiluted sample solutions were injected.
Analysis was performed on an Agilent HP1100 series system equipped with a diode array detector and using ChemStation software vB.02.01-SR1.

[2] = tested on: LTB4 in Washed Human Leukocytes; assay: Inhibition of LTB4 in washed human leukocytes; format: cell-based; conditions: individual tests 1-4
LTB4 in Rat Whole Blood = assay: Rat whole blood LTB4 inhibition assay; format: cell-based; conditions: individual tests 1-5
CYP2C9 = CYP2C9 (Homo sapiens (Human), UniProt P11712); assay: Extracellular cytochrome P450 inhibition (microsomes); format: in vitro ADME; conditions: concentrations up to and exceeding 40 μM
Sequence of CYP2C9 (P11712 whole entry, looked up): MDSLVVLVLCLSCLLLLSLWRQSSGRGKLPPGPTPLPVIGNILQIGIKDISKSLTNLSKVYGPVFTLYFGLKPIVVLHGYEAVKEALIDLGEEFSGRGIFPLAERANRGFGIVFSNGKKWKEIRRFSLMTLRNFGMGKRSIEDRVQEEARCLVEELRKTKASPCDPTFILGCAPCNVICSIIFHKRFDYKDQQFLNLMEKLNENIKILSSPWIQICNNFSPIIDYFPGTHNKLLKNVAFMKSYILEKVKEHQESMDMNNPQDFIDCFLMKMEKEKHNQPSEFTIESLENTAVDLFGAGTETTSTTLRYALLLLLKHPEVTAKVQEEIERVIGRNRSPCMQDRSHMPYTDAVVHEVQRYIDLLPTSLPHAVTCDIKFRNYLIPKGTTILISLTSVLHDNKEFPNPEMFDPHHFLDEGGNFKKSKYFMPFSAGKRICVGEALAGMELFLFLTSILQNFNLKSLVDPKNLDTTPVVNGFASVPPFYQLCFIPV

CYP2C19 = CYP2C19 (Homo sapiens (Human), UniProt P33261); assay: as above; format: in vitro ADME; conditions: concentrations up to and exceeding 40 μM
Sequence of CYP2C19 (P33261 whole entry): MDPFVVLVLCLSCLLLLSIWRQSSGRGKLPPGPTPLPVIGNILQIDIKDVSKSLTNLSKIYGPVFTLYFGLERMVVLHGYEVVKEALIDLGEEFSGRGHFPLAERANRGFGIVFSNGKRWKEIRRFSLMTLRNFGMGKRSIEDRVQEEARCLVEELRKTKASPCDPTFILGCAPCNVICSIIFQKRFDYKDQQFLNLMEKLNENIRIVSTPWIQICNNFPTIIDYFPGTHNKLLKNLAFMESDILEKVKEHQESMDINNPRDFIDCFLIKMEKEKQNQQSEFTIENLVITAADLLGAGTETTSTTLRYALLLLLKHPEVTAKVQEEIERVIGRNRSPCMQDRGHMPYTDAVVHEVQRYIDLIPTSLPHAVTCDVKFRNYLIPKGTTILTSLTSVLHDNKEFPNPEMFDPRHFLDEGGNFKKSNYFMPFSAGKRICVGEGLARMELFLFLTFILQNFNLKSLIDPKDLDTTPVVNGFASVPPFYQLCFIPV
From the text: Final solvent concentrations were 1% (v/v) or less.

CYP2D6 = CYP2D6 (Homo sapiens (Human), UniProt P10635); assay: as above; format: in vitro ADME; conditions: concentrations up to and exceeding 40 μM
Sequence of CYP2D6 (P10635 whole entry): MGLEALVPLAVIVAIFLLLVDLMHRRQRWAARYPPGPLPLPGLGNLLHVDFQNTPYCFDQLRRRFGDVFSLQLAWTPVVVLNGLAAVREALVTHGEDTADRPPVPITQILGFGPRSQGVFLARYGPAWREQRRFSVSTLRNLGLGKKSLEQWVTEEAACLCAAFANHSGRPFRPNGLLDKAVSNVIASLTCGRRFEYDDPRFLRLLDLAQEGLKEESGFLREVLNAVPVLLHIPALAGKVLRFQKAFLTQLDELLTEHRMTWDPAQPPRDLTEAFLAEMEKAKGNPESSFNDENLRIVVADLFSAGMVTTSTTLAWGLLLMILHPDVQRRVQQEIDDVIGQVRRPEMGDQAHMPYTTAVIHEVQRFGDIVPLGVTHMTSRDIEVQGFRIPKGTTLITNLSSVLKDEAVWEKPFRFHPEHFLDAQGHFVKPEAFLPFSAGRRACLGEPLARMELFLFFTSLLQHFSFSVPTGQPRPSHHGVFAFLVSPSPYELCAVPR

CYP1A2 = CYP1A2 (Homo sapiens (Human), UniProt P05177); assay: as above; format: in vitro ADME; conditions: concentrations up to and exceeding 40 μM
Sequence of CYP1A2 (P05177 whole entry): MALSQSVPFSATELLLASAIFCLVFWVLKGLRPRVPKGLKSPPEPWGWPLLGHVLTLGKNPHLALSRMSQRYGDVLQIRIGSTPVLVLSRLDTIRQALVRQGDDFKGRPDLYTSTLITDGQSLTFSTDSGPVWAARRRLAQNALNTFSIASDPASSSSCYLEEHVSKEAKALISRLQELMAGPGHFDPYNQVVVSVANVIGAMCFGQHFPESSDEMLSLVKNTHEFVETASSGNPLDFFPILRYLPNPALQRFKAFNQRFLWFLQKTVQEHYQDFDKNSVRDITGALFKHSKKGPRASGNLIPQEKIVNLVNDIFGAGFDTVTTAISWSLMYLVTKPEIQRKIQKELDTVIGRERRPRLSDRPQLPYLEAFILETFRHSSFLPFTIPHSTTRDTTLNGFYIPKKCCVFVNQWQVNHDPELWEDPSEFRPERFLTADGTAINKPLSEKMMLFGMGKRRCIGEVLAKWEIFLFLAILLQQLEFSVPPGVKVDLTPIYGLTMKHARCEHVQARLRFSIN
Procedure: Aliquots of this mixture (89 μL) were delivered to each well of a 96-well polypropylene plate which contained an aliquot of inhibitor (1 μL). Final solvent concentrations were 1% (v/v) or less. Incubations were commenced with the addition of 10 μL β-NADPH (10 mM stock) to a final volume of 100 μL. […] Samples were centrifuged, and supernatant was transferred for LC-MS analysis.

[3] = Plasma binding (equilibrium dialysis); format: in vitro ADME; conditions: read-out: % Bound (converted)
Procedure: Experiments were performed using equilibrium dialysis.

[4] = Oral administration of liquid formulations to rats; design: species or system male Spargue-Dawley rats; conditions: Sprague-Dawley, rat, in vivo, solutions of Table 19, male rats
[5] = Single-dose pharmacokinetics in beagle dogs; format: in vivo, female beagle dogs; conditions: for Cmax: Oral
[6] = tested on: whole blood ionophore-stimulated leukotriene LTB4; assay: Phase I study: ex vivo ionophore-stimulated LTB4; format: in vivo, human
From the text: Study Design: Single center, double-blind, randomized, placebo-controlled, single ascending dose followed by multiple ascending dose study.
Sample Size: (1) Single Dose Phase: eight (8) subjects (6 active, 2 placebo) per dose level; up to 5 dose levels are planned (a total of 40 subjects if all 5 dose levels are completed); and (2) Multiple Dose Phase: eight (8) subjects (6 active, 2 placebo) per dose level; up to 4 dose levels are planned (a total of 32 subjects if all 4 dose levels are completed).
Formulations: Compound 2 was supplied as an oral powder for reconstitution. Placebo solution matched. […] The placebo differed only in the absence of the active.
The following dosing cohorts were used:
Routes of Administration: All doses were administered orally with approximately 100 mL of water rinse. Subjects were fasted for at least 8 hours prior to dosing and for 2 hours after dosing. For BID dosing in the Multiple Dose Phase, when applicable, subjects were fasted for at least 2 hours prior to the second daily dose.
Plasma concentrations of Compound 1 were determined using a validated LC/MS method. Whole blood ionophore-stimulated leukotriene LTB4 and urinary LTE4 production were assayed by ELISA and mass spectrometry, respectively.
Analysis of Samples: Concentrations of Compound 1 was determined in plasma samples collected from subjects. Similarly, concentrations of LTB4 in plasma and urinary LTE4 were determined in blood and urine samples collected.

[7] = in vivo, po, 250 mg/kg/day
human FLAP = human FLAP (Homo sapiens (Human), UniProt P20292); assay: FLAP binding assay (membrane radioligand binding); conditions: read-out: IC50, inhibition of FLAP radioligand binding; individual tests 1-8
Sequence of human FLAP (P20292 whole entry): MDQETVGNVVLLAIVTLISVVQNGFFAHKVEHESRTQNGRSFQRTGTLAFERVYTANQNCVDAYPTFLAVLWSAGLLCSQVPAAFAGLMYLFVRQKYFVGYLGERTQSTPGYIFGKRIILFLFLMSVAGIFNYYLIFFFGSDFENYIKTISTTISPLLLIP

CYP3A4 = CYP3A4 (Homo sapiens (Human), UniProt P08684); assay: Cellular cytochrome P450 induction in cryopreserved human hepatocytes; conditions: tested at 10 μM, midazolam substrate
Sequence of CYP3A4 (P08684 whole entry, looked up): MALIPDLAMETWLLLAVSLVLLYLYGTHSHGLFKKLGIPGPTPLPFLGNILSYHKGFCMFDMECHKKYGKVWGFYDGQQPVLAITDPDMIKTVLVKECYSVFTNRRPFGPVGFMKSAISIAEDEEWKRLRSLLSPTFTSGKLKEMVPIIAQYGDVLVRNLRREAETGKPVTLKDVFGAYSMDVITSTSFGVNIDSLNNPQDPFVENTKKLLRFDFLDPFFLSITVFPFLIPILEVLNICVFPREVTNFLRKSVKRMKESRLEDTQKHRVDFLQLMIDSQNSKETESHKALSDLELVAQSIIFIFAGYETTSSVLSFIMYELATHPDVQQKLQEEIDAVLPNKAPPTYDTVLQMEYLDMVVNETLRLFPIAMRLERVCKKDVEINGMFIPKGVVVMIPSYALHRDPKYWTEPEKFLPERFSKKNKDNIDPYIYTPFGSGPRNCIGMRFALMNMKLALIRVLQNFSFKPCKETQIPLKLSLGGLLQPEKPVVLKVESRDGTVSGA

[8] = female, beagle, dog, plasma, po, 5 mg/kg, 0.5% Methylcellulose, Fasted
[9] = female, beagle, dog, plasma, po, 5 mg/kg, 0.5% Methylcellulose, Fed
[10] = female, beagle, dog, plasma, po, 6.5 mg/kg, 50 mg Pill, Fasted
[11] = female, beagle, dog, plasma, po, 6.5 mg/kg, 50 mg Pill, Fed

With `CCOc1ccc(-c2ccc(Cn3c(CC(C)(C)C(=O)[O-])c(SC(C)(C)C)c4cc(OCc5ccc(C)cn5)ccc43)cc2)cn1.[Na+]` [Compound 2, sodium 3-[3-(tert-butylsulfanyl)-1-[4-(6-ethoxy-pyridin-3-yl)benzyl]-5-(5-methyl-pyridin-2-yl-methoxy)-1H-indol-2-yl]-2,2-dimethylpropionate] the “pH of unfiltered saturated solution” value ([1]; 25° C.) was “above 9”, the solubility at 24 h ([1]; 25 °C, thermodynamic from solid, both batches) was over 10000 µg/mL and the IC50 [2] was 0.49 nM and 0.87 nM and 0.22 nM and 0.17 nM. The IC90 [2] was 0.77 nM and 1.03 nM and 0.46 nM and 0.41 nM, the IC50 (LTB4 in Rat Whole Blood) was 302 nM and 160 nM and 380 nM and 212 nM and 141 nM and the apparent inhibition (CYP2C9) was “No apparent inhibition”. For the same compound, the apparent inhibition (CYP2C19) was “No apparent inhibition”, the apparent inhibition (CYP2D6) was “No apparent inhibition” and the apparent inhibition (CYP1A2) was “No apparent inhibition”. For the same compound, the fraction unbound at 10 μM ([3]; human plasma) was 0.005, the fraction unbound at 10 μM ([3]; mixed breeds, dog plasma) was 0.003 and the fraction unbound at 10 μM ([3]; mixed breeds, rat plasma) was 0.002. The Tmax [4] was at most 2 h, the Cmax ([5]; 0.5% Methylcellulose, 5 mg/kg, Fasted) was 12400 ng/mL and the “reduction in oral bioavailability and dose-adjusted AUC, IR pill compared to oral suspension” value ([5]; fasted or fed comparator dogs) was about 30%. The AUC(0-inf) [5, 8] was 67800 ng·h/mL, the Tmax [5, 8] was 2 h and the bioavailability [5, 8] was 52%. For the same compound, the AUC(0-inf) [5, 9] was 24300 ng·h/mL, the Tmax [5, 9] was 1.3 h and the bioavailability [5, 9] was 19%. The Cmax ([5]; female, beagle, dog, plasma, po, 5 mg/kg, 0.5% Methylcellulose, 5 mg/kg, Fed, read-out: Cmax) was 3700 ng/mL, the AUC(0-inf) [5, 10] was 41000 ng·h/mL and the Tmax [5, 10] was 2 h. It also gave a bioavailability [5, 10] of 24%, an AUC(0-inf) [5, 11] of 14400 ng·h/mL and a Tmax [5, 11] of 1.7 h. The bioavailability [5, 11] was 8.4%, the Cmax ([5]; female, beagle, dog, plasma, po, 6.5 mg/kg, 50 mg Pill, 6.5 mg/kg, Fasted, read-out: Cmax) was 7600 ng/mL and the Cmax ([5]; female, beagle, dog, plasma, po, 6.5 mg/kg, 50 mg Pill, 6.5 mg/kg, Fed, read-out: Cmax) was 3200 ng/mL. The half-life ([5]; female, beagle, dog, plasma, IV, 4:1 PEG400:Water, 0.67 mg/kg, Fasted) was 13 h, the “tE>50% (time above 50% LTB4 inhibition)” value ([6]; multiple dose 10 mg, Day 1) was 17.5 h and the “tE>90% (time above 90% LTB4 inhibition)” value ([6]; multiple dose 10 mg, Day 1) was 0.0 h. For the same compound, the “tE>50% (time above 50% LTB4 inhibition)” value ([6]; multiple dose 10 mg, Day 11) was 27.4 h, the “tE>90% (time above 90% LTB4 inhibition)” value ([6]; multiple dose 10 mg, Day 11) was 0.0 h and the “tE>50% (time above 50% LTB4 inhibition)” value ([6]; multiple dose 50 mg, Day 1) was over 23.3 h. For the same compound, the “tE>90% (time above 90% LTB4 inhibition)” value ([6]; multiple dose 50 mg, Day 1) was 0.0 h, the “tE>50% (time above 50% LTB4 inhibition)” value ([6]; multiple dose 50 mg, Day 11) was 42.4 h and the “tE>90% (time above 90% LTB4 inhibition)” value ([6]; multiple dose 50 mg, Day 11) was 10.0 h. For the same compound, the “tE>50% (time above 50% LTB4 inhibition)” value ([6]; multiple dose 150 mg, Day 1) was over 23.4 h, the “tE>90% (time above 90% LTB4 inhibition)” value ([6]; multiple dose 150 mg, Day 1) was 15.1 h and the “tE>50% (time above 50% LTB4 inhibition)” value ([6]; multiple dose 150 mg, Day 11) was over 72.0 h. The “tE>90% (time above 90% LTB4 inhibition)” value ([6]; multiple dose 150 mg, Day 11) was 52.4 h, the “tE>50% (time above 50% LTB4 inhibition)” value ([6]; multiple dose 450 mg, Day 1) was over 23.7 h and the “tE>90% (time above 90% LTB4 inhibition)” value ([6]; multiple dose 450 mg, Day 1) was 17.4 h. The “tE>50% (time above 50% LTB4 inhibition)” value ([6]; multiple dose 450 mg, Day 11) was over 72.0 h, the “tE>90% (time above 90% LTB4 inhibition)” value ([6]; multiple dose 450 mg, Day 11) was 50.4 h and the “LTB4 level at t = 24 hrs.” value ([6]; single dose 50 mg) was 37 ± 4.7 % of baseline. For the same compound, the “tE>50% (time above 50% LTB4 inhibition)” value ([6]; single dose 50 mg, Day 1) was 32.2 h, the “tE>90% (time above 90% LTB4 inhibition)” value ([6]; single dose 50 mg, Day 1) was 0.0 h and the “LTB4 level at t = 24 hrs.” value ([6]; single dose 150 mg) was 24 ± 4.4 % of baseline. The “tE>50% (time above 50% LTB4 inhibition)” value ([6]; single dose 150 mg, Day 1) was 41.9 h, the “tE>90% (time above 90% LTB4 inhibition)” value ([6]; single dose 150 mg, Day 1) was 14.2 h and the “LTB4 level at t = 24 hrs.” value ([6]; single dose 300 mg) was 23 ± 8.3 % of baseline. For the same compound, the “tE>90% (time above 90% LTB4 inhibition)” value ([6]; single dose 300 mg, Day 1) was 16.1 h, the “tE>50% (time above 50% LTB4 inhibition)” value ([6]; single dose 300 mg, Day 1, estimated) was 30^# h and the “LTB4 level at t = 24 hrs.” value ([6]; single dose 600 mg) was 1.6 ± 0.98 % of baseline. The “tE>50% (time above 50% LTB4 inhibition)” value ([6]; single dose 600 mg, Day 1) was over 71.7 h, the “tE>90% (time above 90% LTB4 inhibition)” value ([6]; single dose 600 mg, Day 1) was 67.2 h and the “LTB4 level at t = 24 hrs.” value ([6]; single dose 1000 mg) was 1.9 ± 0.41 % of baseline. For the same compound, the “tE>50% (time above 50% LTB4 inhibition)” value ([6]; single dose 1000 mg, Day 1) was over 71.7 h, the “tE>90% (time above 90% LTB4 inhibition)” value ([6]; single dose 1000 mg, Day 1) was 42.6 h and the Liver weight ([7]; female, CD-1, mouse, 4 days) was 1.2 ± 0.1. The “Liver weight (% body weight)” value ([7]; female, CD-1, mouse, 4 days) was 4.4 % body weight, the “liver weight change as compared to vehicle control” value ([7]; female, CD-1, mouse, 4 days) was 5% and the necropsy findings ([7]; mouse) was “no gross abnormalities”. The IC50 (human FLAP) was 2.8 nM and 2.2 nM and the CYP3A4 induction (CYP3A4) was “No apparent induction”.
